Results reported in patent publication US6525059B1, “Substituted pyrazoles as p38 kinase inhibitors” (G. D. Searle & Company, priority 1998, dated 2003).
Read-outs that look alike come from different tables or passages of the source.

Key:
human p38 kinase alpha = target: T1, human p38 kinase alpha (Homo sapiens, UniProt Q16539); assay: p38 kinase in vitro assay, phosphorylation of biotinylated PHAS-I with gamma 32P-ATP; format: biochemical; conditions: for inhibition at 1 µM / inhibition at 10 µM: read-out: P38 alpha kinase % inhib @ conc.
T1 construct: The coding region of the human p38a cDNA was obtained by PCR-amplification from RNA isolated from the human monocyte cell line THP.1; GST (N); made in house; host or cells: E. coli DH10B
T1 sequence (Q16539 whole entry): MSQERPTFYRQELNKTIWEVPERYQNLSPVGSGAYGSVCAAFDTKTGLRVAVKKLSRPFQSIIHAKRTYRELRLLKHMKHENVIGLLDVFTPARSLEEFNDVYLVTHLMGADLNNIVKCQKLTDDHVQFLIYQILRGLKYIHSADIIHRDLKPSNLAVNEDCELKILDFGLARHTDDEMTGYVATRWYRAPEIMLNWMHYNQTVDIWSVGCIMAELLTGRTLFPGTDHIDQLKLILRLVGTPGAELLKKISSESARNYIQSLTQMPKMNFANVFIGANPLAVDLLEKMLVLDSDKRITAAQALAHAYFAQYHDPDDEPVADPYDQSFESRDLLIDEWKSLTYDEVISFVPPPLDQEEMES
Procedure, shortened: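 Radiometric filter-capture read-out: streptavidin plates trap biotin-PHAS-I labelled by activated (MKK6) human p38α from γ-32P-ATP. Buffer 25 mM HEPES pH 7.5, 10 mM magnesium acetate, 50 μM cold ATP; reactions 1 h or overnight at 30 °C; inhibitors 10-fold dilutions 100 to 0.001 μM, triplicates, 1% DMSO.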

TNF-α = assay: LPS stimulation of TNF production by U937 cells; format: cell-based, human; conditions: for inhibition at 1 µM: U-937, @ 1.0 uM, read-out: U937 Cell % inhib @ conc.
Procedure, shortened: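 PMA-differentiated human U937 cells (20 ng/ml PMA, 24 h, then 24-48 h rest) at 2 million cells/ml, 0.1% DMSO final, stimulated with E. coli LPS (100 ng/ml final) for 4 h at 37° C. TNF-α in medium measured by ELISA; IC50 in μM.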

[1] = read-out: P38 alpha kinase IC50
[2] = Homo sapiens, U-937, TNF production, LPS-stimulated human U937 cells, read-out: U937 Cell IC50

Compound	IC50 (human p38 kinase alpha; [1]) [nM]	inhibition at 1 µM (TNF-α; Homo sapiens) [%]	further results
O=C(NCc1[nH]nc(-c2ccc(F)cc2)c1-c1ccncc1)c1ccc(F)cc1F [Example B-0299]	870	54	–
COc1ccc(C(=O)NCc2[nH]nc(-c3ccc(F)cc3)c2-c2ccncc2)cc1OC [Example B-0068]	–	22	inhibition at 1 µM (human p38 kinase alpha): 72%
C[C@@H](NC(=O)C1CCC1)c1[nH]nc(-c2ccc(F)cc2)c1-c1ccncc1 [Example B-0360]	1600	19	–
C[C@@H](NS(=O)(=O)C(F)(F)F)c1[nH]nc(-c2ccc(F)cc2)c1-c1ccncc1 [Example B-0391]	860	18	–
C[C@@H](NS(=O)(=O)c1ccc(CNC(=O)c2ccccc2)s1)c1[nH]nc(-c2ccc(F)cc2)c1-c1ccncc1 [Example B-0480]	120	88	–
O=C(NCc1[nH]nc(-c2ccc(F)cc2)c1-c1ccncc1)[C@H]1CCCN1 [Example B-0196]	2240	–	IC50 (TNF-α; [2]): > 1000 nM
CSCCC(=O)NCc1[nH]nc(-c2ccc(F)cc2)c1-c1ccncc1 [Example B-0081]	–	13	inhibition at 1 µM (human p38 kinase alpha): 92%
O=C(NCc1[nH]nc(-c2ccc(F)cc2)c1-c1ccncc1)NC(=O)c1ccccc1 [Example B-0146]	–	28	inhibition at 10 µM (human p38 kinase alpha): 77%
COc1cccc(CC(=O)N[C@H](C)c2[nH]nc(-c3ccc(F)cc3)c2-c2ccncc2)c1 [Example B-0373]	450	18	–
O=S(=O)(NCc1[nH]nc(-c2ccc(F)cc2)c1-c1ccncc1)c1c(Cl)cccc1Cl [Example B-0233]	95	43	–
CCc1ccccc1NC(=O)NCc1[nH]nc(-c2ccc(F)cc2)c1-c1ccncc1 [Example B-0169]	–	21	inhibition at 1 µM (human p38 kinase alpha): 43%
C[C@@H](NC(=O)c1c(F)cc(F)cc1F)c1[nH]nc(-c2ccc(F)cc2)c1-c1ccncc1 [Example B-0507]	180	75	–
C[C@@H](NC(=O)c1ccc(C(F)(F)F)cc1)c1[nH]nc(-c2ccc(F)cc2)c1-c1ccncc1 [Example B-0527]	1090	63	–
Cc1ccc(C)c(S(=O)(=O)N[C@H](C)c2[nH]nc(-c3ccc(F)cc3)c2-c2ccncc2)c1 [Example B-0468]	31	93	–
O=S(=O)(NCc1[nH]nc(-c2ccc(F)cc2)c1-c1ccncc1)c1cccc(C(F)(F)F)c1 [Example B-0247]	82	75	–
CS(=O)(=O)NCc1[nH]nc(-c2ccc(F)cc2)c1-c1ccncc1 [Example B-0107]	270	–	IC50 (TNF-α; [2]): 5000 nM
C[C@@H](NC(=O)c1ccccc1Cl)c1[nH]nc(-c2ccc(F)cc2)c1-c1ccncc1 [Example B-0514]	140	87	–
C[C@@H](NC(=O)N1CCCC1)c1[nH]nc(-c2ccc(F)cc2)c1-c1ccncc1 [Example B-0404]	310	48	–
O=C(NCc1[nH]nc(-c2ccc(F)cc2)c1-c1ccncc1)Nc1ccccc1 [Example B-0175]	–	31	inhibition at 10 µM (human p38 kinase alpha): 41%
Cc1ccc(S(=O)(=O)N[C@H](C)c2[nH]nc(-c3ccc(F)cc3)c2-c2ccncc2)cc1 [Example B-0399]	140	39	–
CC(C)(C)C(=O)NC(Cc1ccccc1)c1[nH]nc(-c2ccc(F)cc2)c1-c1ccncc1 (centres unmarked) [Example B-0791]	300	–	IC50 (TNF-α; TNF production, LPS-stimulated human U937 cells, read-out: U937 Cell IC50): > 1000 nM
O=C(NCc1ccc(S(=O)(=O)NCc2[nH]nc(-c3ccc(F)cc3)c2-c2ccncc2)s1)c1ccccc1 [Example B-0255]	320	68	–

Compound	IC50 (human p38 kinase alpha; [1]) [nM]	inhibition at 1 µM (TNF-α; Homo sapiens) [%]	further results
O=S(=O)(NCc1[nH]nc(-c2ccc(F)cc2)c1-c1ccncc1)c1cc(Cl)cc(Cl)c1 [Example B-0241]	100	45	–
CCOC(=O)c1cccc(NC(=O)NCc2[nH]nc(-c3ccc(F)cc3)c2-c2ccncc2)c1 [Example B-0154]	–	14	inhibition at 10 µM (human p38 kinase alpha): 65%
CC(C)NC(=O)N[C@H](C)c1[nH]nc(-c2ccc(F)cc2)c1-c1ccncc1 [Example B-0401]	460	52	–
COC(=O)CNc1n[nH]c(-c2ccc(F)cc2)c1-c1ccncc1 [Example A-292, N-[5-(4-fluorophenyl)-4-(4-pyridinyl)-1H-pyrazol-3-yl]glycine methyl ester]	–	–	IC50 (human p38 kinase alpha; p38α in vitro, PHAS-I assay procedure, read-out: p38^1 IC50): 1150 nM; IC50 (TNF-α; Homo sapiens, U-937, LPS-stimulated U937 cells, read-out: U937 IC50): > 10000 nM
O=C(NCc1[nH]nc(-c2ccc(F)cc2)c1-c1ccncc1)c1cccc2ccccc12 [Example B-0275]	2670	33	–
O=S(=O)(NCc1[nH]nc(-c2ccc(F)cc2)c1-c1ccncc1)c1cccc2cnccc12 [Example B-0265]	920	24	–
C[C@@H](NC(=O)[C@H]1CCCN1)c1[nH]nc(-c2ccc(F)cc2)c1-c1ccncc1 [Example B-0427]	630	39	–
C[C@@H](NC(=O)c1cc(F)c(F)cc1F)c1[nH]nc(-c2ccc(F)cc2)c1-c1ccncc1 [Example B-0521]	1370	52	–
C[C@@H](NC(=O)c1ccc(F)cc1C(F)(F)F)c1[nH]nc(-c2ccc(F)cc2)c1-c1ccncc1 [Example B-0511]	7	90	–
O=C(NCc1[nH]nc(-c2ccc(F)cc2)c1-c1ccncc1)c1c(F)cccc1F [Example B-0298]	580	48	–
COC(=O)CCCC(=O)NCc1[nH]nc(-c2ccc(F)cc2)c1-c1ccncc1 [Example B-0078]	–	20	inhibition at 1 µM (human p38 kinase alpha): 80%
Cc1ccc(C(=O)N[C@H](C)c2[nH]nc(-c3ccc(F)cc3)c2-c2ccncc2)cc1 [Example B-0374]	1380	–	U937 Cell % inhib @ conc. (TNF-α; @ 1.0 uM): 12.0% @ 1.0 uM
CCNC(=O)NCc1[nH]nc(-c2ccc(F)cc2)c1-c1ccncc1 [Example B-0212]	120	28	–
O=C(NCc1[nH]nc(-c2ccc(F)cc2)c1-c1ccncc1)c1sc2ccccc2c1Cl [Example B-0058]	–	18	inhibition at 1 µM (human p38 kinase alpha): 79%
CC(Oc1ccccc1)C(=O)NCc1[nH]nc(-c2ccc(F)cc2)c1-c1ccncc1 (centres unmarked) [Example B-0202]	550	–	IC50 (TNF-α; [2]): 2260 nM
O=C(NCc1[nH]nc(-c2ccc(F)cc2)c1-c1ccncc1)c1cc(F)cc(F)c1 [Example B-0277]	680	34	–
C[C@@H](NC(=O)c1ccccc1F)c1[nH]nc(-c2ccc(F)cc2)c1-c1ccncc1 [Example B-0522]	150	75	–
CC(C)c1ccc(S(=O)(=O)NCc2[nH]nc(-c3ccc(F)cc3)c2-c2ccncc2)cc1 [Example B-0123]	–	–	inhibition at 1 µM (human p38 kinase alpha): 59%; IC50 (TNF-α; [2]): > 1000 nM
CCc1ccc(S(=O)(=O)NCc2[nH]nc(-c3ccc(F)cc3)c2-c2ccncc2)cc1 [Example B-0132]	–	8	inhibition at 1 µM (human p38 kinase alpha): 76%
C[C@@H](NC(=O)N[C@H](C)c1[nH]nc(-c2ccc(F)cc2)c1-c1ccncc1)c1ccccc1 [Example B-0414]	540	25	–
O=S(=O)(NCc1[nH]nc(-c2ccc(F)cc2)c1-c1ccncc1)c1cccc(Cl)c1Cl [Example B-0230]	41	30	–
